Consider 5 compounds from patent US12115208B2, “Small-molecule adjuvants for antibiotics to address antibiotic resistance” (HIGH POINT UNIVERSITY, priority 2017, dated 2024).

What all share (assay type): cell-based, Staphylococcus aureus
The subject of one assay is MRSA 43300 biofilm. As to the kind of experiment: Biofilm inhibition, crystal violet assay. Conditions: Staphylococcus aureus, MRSA, 30 h. On the procedure: A standard static crystal violet assay was used to quantify biofilm inhibition.^45 Cultures of S. aureus or S. epidermidis were grown overnight in TSBG (tryptic soy broth with 5% glucose) at 37° C. with shaking. These cultures were used to inoculate fresh TSBG to a calculated optical density of 0.01 at 600 nm (OD600). […] Untreated aliquots were used as a positive control and water served as a negative control. 100 μl of these suspensions were added to the wells of a 96-well polyvinylchloride microtiter plate. […] After incubation, media was discarded and the plates were washed with water to remove non-adherent cells. Adherent biofilms were stained with 110 μl of crystal violet (0.1% in water) and incubated at room temperature for thirty minutes. The crystal violet staining solution was discarded and plates were washed with water to remove excess stain. The resulting stained biofilms were solubilized with 200 μL of 95% ethanol for 10 minutes. 125 μl of the ethanol solutions were transferred to a clear polystyrene microtiter plate for evaluation. Absorbance at 540 nm was recorded using a BioTek Synergy H1 microplate reader. The absorbance of the negative control lanes was subtracted from the experimental values to account for background staining. Percent inhibition was calculated by comparison of the absorbance values of control versus treated wells under identical conditions.
Antibiotic resistance and biofilm formation share similar regulatory mechanisms. […] Biofilm inhibition was first assessed in S. aureus 43300, a methicillin-resistant strain (see Table 18). As described in Materials and Methods, a standard crystal violet assay was used to assess biofilm inhibition by the tested compounds. The IC50 is described as the compound concentration required to inhibit 50% of biofilm formation. The standard deviation is calculated from at least 3 independent experiments.

In another assay the test system is S. aureus 43300 (MRSA). The experiment in a line: Antibiotic repotentiation (antibiotic MIC with/without compound). As for the experimental part: (§1) The overnight culture was diluted into fresh CAMHB to a concentration of 5×10^5 CFU/ml. […] On the same plate, a standard microdilution MIC with the tested antibiotics and no added compound was also performed to compare the antibiotic MIC in the presence and absence of compound. […] Fold reductions were calculated by dividing the MIC of the antibiotic without compound by the MIC of the antibiotic in the presence of compound.
(§2) The compounds were then analyzed for antibiotic repotentiation activity. […] The tested strains included USA300, which is a common and particularly virulent strain of community-acquired MRSA.

For assay [1], the system named is S. aureus USA100 (MRSA). As to the kind of experiment: microbe, parasite or virus in culture. Conditions: compound alone, CAMHB, 18 h.
For assay [2], the system named is S. aureus ATCC 43300 (MRSA). As to the kind of experiment: Minimum inhibitory concentration, broth microdilution. Conditions: compound alone; S. aureus ATCC 43300 (MRSA); CAMHB, 18 h; read-out: MIC. As for the experimental part: as §2
Background: Broth dilution looks for growth in wells or tubes with falling amounts of substance.

In assay [3] the test system is S. aureus USA300 (MRSA). The description is as above. Conditions: compound alone; S. aureus USA300 (MRSA); CAMHB, 18 h; read-out: MIC. As for the experimental part: as §2
Assay [4] relates to S. aureus USA100 (MRSA). The experiment in a line: Antibiotic repotentiation (antibiotic MIC with/without compound). As for the experimental part: as §1
The subject of assay [5] is S. aureus USA300 (MRSA). The assay is described as above. Conditions: for Oxacillin MIC / Fold Reduction: +50 μM compound, S. aureus USA300 (MRSA); for Fold Reduction: oxacillin MIC; for MIC of antibiotic: MRSA USA300. On the procedure: as §1, §2
The test system of assay [6] is S. aureus NR-49120 (VRSA). The description is as above. Conditions: VRSA NR-49120; for Fold Reduction: antibiotic MIC. As for the experimental part:
as §1

Setting [7] is: oxacillin MIC, +50 μM compound, S. aureus 43300 (MRSA).
Where [8] appears, read: +50 μM compound, S. aureus USA100 (MRSA).
[9] abbreviates: oxacillin MIC, +50 μM compound, S. aureus USA100 (MRSA).
Setting [10] is: +50 μM compound, S. aureus 43300 (MRSA).
Where [11] appears, read: antibiotic MIC, +Loratadine 25 μM, MRSA USA100.
Setting [12] is: antibiotic MIC, +Loratadine 50 μM, MRSA USA100.
The mark [13] stands for this setting: +Amoxapine (150 μM), S. aureus 43300 (MRSA).
Where [14] appears, read: antibiotic MIC, +Amoxapine (150 μM), S. aureus 43300 (MRSA).
Setting [15] is: antibiotic MIC, +Loratadine 25 μM, MRSA 43300.
The mark [16] stands for this setting: antibiotic MIC, +Loratadine 50 μM, MRSA 43300.
Where [17] appears, read: antibiotic alone, no compound, S. aureus 43300 (MRSA).
Setting [18] is: antibiotic alone, S. aureus ATCC 43300 (MRSA).

Structures are written as SMILES. Where only a bound is given, the exact number is not on record here.

As a reminder, the IC50 is the concentration that gives 50% inhibition.

With `Clc1ccc2c(c1)Nc1ccccc1CC2` [Compound I-5, 3-chloro-10,11-dihydro-5H-dibenzo[b,f]azepine], the IC50 in the assay with MRSA 43300 biofilm is 18.7 µM. The “Fold Reduction” value in the assay on S. aureus 43300 (MRSA) (setting [7]) amounted to 16.
Consider `Brc1ccc2[nH]c3ccc(Br)cc3c2c1` [IV-5], for which the MIC (in the assay with S. aureus USA100 (MRSA) [1]; in assay [2]; in the assay on S. aureus USA300 (MRSA) [3]) was over 200 µM each time. Also, the results for the “Oxacillin MIC” value in the assay with S. aureus USA100 (MRSA) [4] (setting [8]), in the assay with S. aureus 43300 (MRSA) (setting [10]) and with S. aureus USA300 (MRSA) [5] were 4 µg/mL, 8/4 and 32 µg/mL, respectively. For the same compound, the “Fold Reduction” value in the assay with S. aureus USA100 (MRSA) [4] (setting [9]) is 128; in the assay with S. aureus 43300 (MRSA) (setting [7]), 4/8; in the assay on S. aureus USA300 (MRSA) [5] it was 2.
As for `Brc1cccc2c1[nH]c1ccccc12` [IV-2], the MIC (against S. aureus USA100 (MRSA) [1]; in assay [2]; in the assay with S. aureus USA300 (MRSA) [3]) was over 200 µM each time. Also, the entries for the “Oxacillin MIC” value in the assay on S. aureus USA100 (MRSA) [4] (setting [8]), in the assay with S. aureus 43300 (MRSA) (setting [10]) and with S. aureus USA300 (MRSA) [5] were 8 µg/mL, 4 µg/mL and 16/8, respectively. For the same compound, the “Fold Reduction” value is 64 in the assay on S. aureus USA100 (MRSA) [4] (setting [9]), 8 with S. aureus 43300 (MRSA) (setting [7]) and 4/8 in the assay on S. aureus USA300 (MRSA) [5].
Regarding `Cc1nnc(SCC2=C(C(=O)O)N3C(=O)[C@@H](NC(=O)Cn4cnnn4)[C@H]3SC2)s1` [Cefazolin], the MIC of antibiotic in assay [6] (+Loratadine 25 μM) is 32 µg/mL; in assay [6] (+Loratadine 50 μM), 8 µg/mL; in assay [6] (antibiotic alone), 128 µg/mL; in the assay on S. aureus USA100 (MRSA) [4] (+Loratadine 25 μM, MRSA USA100) it was 128 µg/mL; in the assay on S. aureus USA100 (MRSA) [4] (+Loratadine 50 μM, MRSA USA100), 1 µg/mL; in the assay on S. aureus USA100 (MRSA) [4] (antibiotic alone, MRSA USA100) it was 256 µg/mL. Further, the MIC of antibiotic in the assay on S. aureus 43300 (MRSA) (setting [13]) was determined as 0.5 µg/mL; in the assay on S. aureus 43300 (MRSA) (+Loratadine 25 μM, MRSA 43300) it was 16 µg/mL; with S. aureus 43300 (MRSA) (+Loratadine 50 μM, MRSA 43300) it was 1 µg/mL; in the assay on S. aureus 43300 (MRSA) (setting [17]) it was 16 µg/mL; in the assay on S. aureus 43300 (MRSA) (setting [18]) it was 64 µg/mL; in the assay with S. aureus USA300 (MRSA) [5] (+Loratadine 25 μM) it was 4 µg/mL. For the same compound, the MIC of antibiotic was determined as 1 µg/mL with S. aureus USA300 (MRSA) [5] (+Loratadine 50 μM) and 32 µg/mL with S. aureus USA300 (MRSA) [5] (antibiotic alone). For the same compound, the “Fold Reduction” value is 4 in assay [6] (+Loratadine 25 μM); 16 in assay [6] (+Loratadine 50 μM); 2 in the assay on S. aureus USA100 (MRSA) [4] (setting [11]); 256 in the assay with S. aureus USA100 (MRSA) [4] (setting [12]); 32 in the assay with S. aureus 43300 (MRSA) (setting [14]); 4 in the assay with S. aureus 43300 (MRSA) (setting [15]). Further, the “Fold Reduction” value in the assay with S. aureus 43300 (MRSA) (setting [16]) stood at 64.
For `CC1(C)S[C@@H]2[C@H](NC(=O)[C@H](N)c3ccccc3)C(=O)N2[C@H]1C(=O)O` [Ampicillin], the MIC of antibiotic is 16 µg/mL in assay [6] (+Loratadine 25 μM); 4 µg/mL in assay [6] (+Loratadine 50 μM); 16 µg/mL in assay [6] (antibiotic alone); 16 µg/mL with S. aureus USA100 (MRSA) [4] (+Loratadine 25 μM, MRSA USA100); 1/2 in the assay on S. aureus USA100 (MRSA) [4] (+Loratadine 50 μM, MRSA USA100); 32 µg/mL with S. aureus USA100 (MRSA) [4] (antibiotic alone, MRSA USA100). Besides, the MIC of antibiotic in the assay with S. aureus 43300 (MRSA) (setting [13]) was 4 µg/mL; in the assay on S. aureus 43300 (MRSA) (+Loratadine 25 μM, MRSA 43300) it was 16/8; in the assay on S. aureus 43300 (MRSA) (+Loratadine 50 μM, MRSA 43300) it was 1/2; with S. aureus 43300 (MRSA) (setting [17]) it was 32 µg/mL; in the assay on S. aureus 43300 (MRSA) (setting [18]) it was 16 µg/mL; in the assay on S. aureus USA300 (MRSA) [5] (+Loratadine 25 μM), 8 µg/mL. Also, the MIC of antibiotic with S. aureus USA300 (MRSA) [5] (+Loratadine 50 μM) stood at 0.5 µg/mL; in the assay on S. aureus USA300 (MRSA) [5] (antibiotic alone), 8 µg/mL. Also, the “Fold Reduction” value in assay [6] (+Loratadine 25 μM) is 1; in assay [6] (+Loratadine 50 μM) it was 4; in the assay on S. aureus USA100 (MRSA) [4] (setting [11]), 2; in the assay with S. aureus USA100 (MRSA) [4] (setting [12]), 32/16; in the assay on S. aureus 43300 (MRSA) (setting [14]), 8; in the assay with S. aureus 43300 (MRSA) (setting [15]) it was 1/2. Besides, the “Fold Reduction” value with S. aureus 43300 (MRSA) (setting [16]) turned out to be 4.
